Assay results taken from ChEMBL document CHEMBL3102724, “Isolation of antiplasmodial anthraquinones from Kniphofia ensifolia, and synthesis and structure-activity relationships of related compounds” (Bioorg Med Chem, 2014).

Legend:
[1] = system: Plasmodium falciparum; experiment: Antiplasmodial activity against chloroquine-resistant ring stage Plasmodium falciparum Dd2 after 72 hrs by SYBR Green 1-based fluorescence assay; type: functional, organism-based; settings: Dd2, 72 h
[2] = system: A2780; experiment: Cytotoxicity against human A2780 cells; type: cell-based

| SMILES | IC50 [1] [µM] | IC50 [2] [µM] |
| --- | --- | --- |
| Cc1cc(O)c2c(c1)C(=O)c1ccc(C3(O)c4cccc(O)c4C(=O)c4c(O)cc(C)cc43)c(O)c1C2=O (configuration not stated) | 0.4 | 6 |
| Cc1cc(O)c2c(c1)C(O)(c1ccc3c(c1O)C(=O)c1c(O)cc(C)c(O)c1C3=O)c1cccc(O)c1C2=O (configuration not stated) | 0.2 | 4 |
| Cc1cc(O)c2c(c1)C(=O)c1ccc(-c3c(C)cc(O)c4c3C(=O)c3cccc(O)c3C4=O)c(O)c1C2=O | 10 | > 60 |
| Cc1cc(O)cc2c1C(=O)c1cc(-c3c(C)cc4c(c3O)C(=O)c3c(O)cccc3C4=O)cc(O)c1C2=O | 10 | > 60 |
| CC(=O)OCc1cc(O)c2c(c1)C(=O)c1cccc(O)c1C2=O | 42 | – |
| O=C(OCc1cc(O)c2c(c1)C(=O)c1cccc(O)c1C2=O)c1ccccc1 | 31 | – |
| C/C=C/C(=O)OCc1cc(O)c2c(c1)C(=O)c1cccc(O)c1C2=O | 45 | – |
| O=C(CCc1ccccc1)OCc1cc(O)c2c(c1)C(=O)c1cccc(O)c1C2=O | 36 | – |
| O=C(/C=C/c1ccccc1)OCc1cc(O)c2c(c1)C(=O)c1cccc(O)c1C2=O | 18 | – |
| COc1ccc(C(=O)OCc2cc(O)c3c(c2)C(=O)c2cccc(O)c2C3=O)cc1 | 22 | – |
| COc1ccc(/C=C/C(=O)OCc2cc(O)c3c(c2)C(=O)c2cccc(O)c2C3=O)cc1 | 5 | – |
| CC(=O)Oc1ccc(/C=C/C(=O)OCc2cc(O)c3c(c2)C(=O)c2cccc(O)c2C3=O)cc1 | 12 | – |
| CC(=O)Oc1ccc(C(=O)OCc2cc(O)c3c(c2)C(=O)c2cccc(O)c2C3=O)cc1 | 30 | – |
| COc1ccc(C(=O)OCc2cc(O)c3c(c2)C(=O)c2cccc(O)c2C3=O)cc1OC | 14 | – |
| COc1cc(C(=O)OCc2cc(O)c3c(c2)C(=O)c2cccc(O)c2C3=O)cc(OC)c1OC | 16 | – |
| COc1ccc(/C=C/C(=O)OCc2cc(O)c3c(c2)C(=O)c2cccc(O)c2C3=O)cc1OC | 1.3 | – |
| COc1cc(/C=C/C(=O)OCc2cc(O)c3c(c2)C(=O)c2cccc(O)c2C3=O)cc(OC)c1OC | 2.7 | – |
| COc1cc(/C=C/C(=O)OCc2cc(O)c3c(c2)C(=O)c2cccc(O)c2C3=O)cc(OC)c1 | 2.5 | – |
| COc1ccc(/C=C/C(=O)OCc2cc(O)c3c(c2)C(=O)c2cccc(O)c2C3=O)c(OC)c1 | 6 | – |
| COc1cccc(/C=C/C(=O)OCc2cc(O)c3c(c2)C(=O)c2cccc(O)c2C3=O)c1OC | 8 | – |
| COc1ccc(OC)c(/C=C/C(=O)OCc2cc(O)c3c(c2)C(=O)c2cccc(O)c2C3=O)c1 | 9 | – |
| O=C(/C=C/c1ccc2c(c1)OCO2)OCc1cc(O)c2c(c1)C(=O)c1cccc(O)c1C2=O | 1.9 | – |
| O=C(OCc1cc(O)c2c(c1)C(=O)c1cccc(O)c1C2=O)c1ccc(O)cc1 | 26 | > 60 |
| O=C(/C=C/c1ccc(O)cc1)OCc1cc(O)c2c(c1)C(=O)c1cccc(O)c1C2=O | 9 | > 60 |
| O=C1c2cccc(O)c2C(=O)c2c(O)cc(CO)cc21 [ALOE-EMODIN] | 55 | 26 |
| C[C@@H]1CC[C@H]2[C@@H](C)C(=O)O[C@@H]3O[C@@]4(C)CC[C@@H]1[C@]32OO4 [ARTEMISININ] | 0.007 | – |
| Cc1cc(O)c2c(c1)C(=O)c1cccc(O)c1C2=O [CHRYSOPHANOL] | 58 | > 60 |
| COc1cc(O)c(-c2c(C)cc(O)c3c2C(=O)c2cccc(O)c2C3=O)c(O)c1C(C)=O [KNIPHOLONE] | 1.1 | 8 |
